# From patent US10822586B2, “Agents and methods for treating and preventing seborrheic keratosis” (THE GENERAL HOSPITAL CORPORATION, priority 2012, dated 2020)
# “Also recorded” adds a separate entry of the source. Where two headings read alike, the source gives them in different places.
# Tests used:
# SK cells = assay: Apoptosis in SK cells (cleaved PARP Western blotting, TUNEL staining); type: cell-based, human
# Procedure: (§1) (FIG. 6A) SK cells were treated with the Akt inhibitor either for 24 hrs to measure levels of cleaved PARP by Western blotting or (FIG. 6B) for 48 hrs to detect TUNEL staining. (FIG. 6C) 24 hrs post treatment pro-apoptotic Akt targets were analyzed by WB.
# It is well-established that activation of Akt in cells is known to elicit pro-survival effects through activation/suppression of different targeted pathways.
# primary SK cells = assay: Screening for inducers of cell death in primary SK cells (SRB assay); type: cell-based, human; details: for SK cell death inducer activity / viability of SK cells in the screen: 500 nM; for SK cell death inducer activity / viability of SK cells in the screen / cell death in SK cells (follow-up): 24 hrs post treatment, SRB assay
# Procedure: (§2) FIG. 2A, FIG. 2B, and FIG. 2C show data relating to the screening for small molecule inducers of cell death in primary SK cells. (FIG. 2A) 20 small molecule inhibitors (500 nM) of kinases within the MAPK-Raf and PIK3/Akt pathway were used to treat primary SK cells (in 12 well plates) harboring either FGFR3 or/and PIK3CA mutations or none. Cell death was detected 24 hrs post treatment using SRB assay. (FIG. 2B) Representative images of cells after compound treatment. (FIG. 2C) Same molecules were used on normal human keratinocytes in two different concentrations.
# (§3) (FIG. 4A) SK cells were treated with two different Akt inhibitors and cell death was measured 24 hrs post treatment using SRB assay. (FIG. 4B) Akt inhibitors were profiled against the human kinome and shared targets were identified. (FIG. 4C) Cell death in SK cells after PKC inhibition. (FIG. 4D) cell death was measured in SK cells 72 hrs after transfection with control RNAi or RNAi for Akt1 and/or 2.
# (§4) Due to the fragility of the primary cultures, RNAi transfection in a high throughput fashion turned out to be challenging, which prompted the use of a collection of specific small molecule kinase inhibitors to determine which kinase is essential for survival of SK cells but not of normal human keratinocytes. This level of selectivity was introduced in order to specifically target dependency caused by genomic alterations (both mutations and overexpression).
# As recently reported this hyperphosphorylation is due to the docking of the compound in the ATP binding site, which prevents the Akt interaction with its downstream targets^27. As shown in FIG. 5B SK cells treated with C8 indeed have a hyperphosphorylated Akt, but importantly the Akt downstream signaling was shut down (FIG. 5C).
# (§5) Small molecule kinase inhibitors usually have a high degree of specificity towards kinases in general but often these inhibitory effects are shared among several kinases, although in different doses. While this is in most of the cases considered a weakness of the approach, it can also give some evidence about other possible targets involved in the process of interest. Therefore, the inventors profiled the two effective compounds for their targets (in collaboration with Dr. N. Gray, DFCI) and determined if any other kinases might be involved in the survival of SK cells. […] In addition, the inventors were able to confirm this by down-modulation of Akt family members using an RNAi approach.
# Akt = assay: Western blotting of Akt signaling in SK cells; type: cell-based, human
# Procedure: (§6) (FIG. 3A) SK and normal keratinocytes were treated with C8 for 24 hrs and SRB stained. (FIG. 3B) and (FIG. 3C). SK cells were treated with C8 for 4 hrs and subjected to Western blotting for corresponding proteins.
# Human SK explants = assay: Topical treatment of ex vivo human SK explants; type: cell-based
# Procedure: It is now widely accepted that growth, differentiation and death of keratinocytes in culture differs in significant aspects from that in intact skin. Therefore, in order to closely reproduce the in vivo situation for SK tumors, the inventors utilized an ex vivo explant system^16 for culturing freshly excised SK lesions for up to 7 days. SK explants were treated by topical application of 1 mM of C8 for 48 hrs and stained for activated Caspase 3 to detect cell death.
# [1] = system: normal human keratinocytes; assay: Cell death in normal human keratinocytes (SRB assay); type: cell-based; details: C8 dose-response, 24 hrs, SRB stained
# Procedure: as §2
# as §6, with “FIG. 3A, FIG. 3B, and FIG. 3C show data relating to small molecule-mediated inhibition of Akt signaling in primary SK cells. (FIG. 3A)” for “(FIG. 3A)”
# as §4, with “overexpression). […]” for “overexpression).”
# human kinome = assay: Profiling of Akt inhibitors against the human kinome; type: biochemical
# Procedure: as §3, §5
# [2] = system: pro-apoptotic Akt targets (FoxO1/3, MDM2, p53); assay: Western blot of pro-apoptotic Akt targets in SK cells; type: cell-based, human; details: 24 hrs post treatment, WB
# Procedure: as §1
# Therefore, it was investigated if any of the prominent pro-apoptotic targets of Akt were involved in this process. A decrease of phosphorylated levels of FoxO1/3 as well as of phosphorylated MDM2 was observed, which correlated with increased p53 levels upon treatment with the Akt inhibitor […].
# [3] = SK cells treated 4 hrs, Western blotting
structure (smiles),measurement,setting,value
Cc1n[nH]c2ccc(-c3cncc(OC[C@@H](N)Cc4c[nH]c5ccccc45)c3)cc12 [C8],apoptosis as detected by cleaved PARP levels and TUNEL staining,"SK cells; 24 hrs (cleaved PARP), 48 hrs (TUNEL)",induction of apoptosis
same,TUNEL staining,"SK cells; SK cells, 48 hrs",positive
same,SK cell death inducer activity / viability of SK cells in the screen,primary SK cells,very strong activity
same,cell death in SK cells (follow-up),primary SK cells,dose-response killing effect
same,Akt downstream signaling,Akt; [3],shut down
same,phosphorylation status of Akt at T308 and 5473,Akt; [3],paradoxical hyperphosphorylation
same,cell death in SK explants (activated Caspase 3),Human SK explants; topical application of 1 mM for 48 hrs,significant cell death; also recorded: induction of cell death
same,tissue destruction in SK explants (H&E staining),Human SK explants; topically treated with 1 mM for 48 hrs,tissue destruction
same,effect on normal keratinocytes,[1],remained unaffected even at higher doses
same,shared targets in kinase profiling,human kinome,only members of the Akt and PKC family were shared targets
same,p53 levels,[2],increased
same,phosphorylated MDM2,[2],decrease
same,phosphorylated levels of FoxO1/3,[2],decrease
"COc1ccc(C[C@H](N)C(=O)N[C@H]2[C@@H](O)[C@H](n3cnc4c(N(C)C)ncnc43)O[C@@H]2CO)cc1 [pyromycin, puromycin]",cell death in SK cells,primary SK cells,inducer of cell death
COc1ccc(C2=N[C@@H](c3ccc(Cl)cc3)[C@@H](c3ccc(Cl)cc3)N2C(=O)N2CCNC(=O)C2)c(OC(C)C)c1 [Nutlin-3],cell death in SK cells,primary SK cells,induces cells death
"Cc1c2ccncc2c(C)c2c1[nH]c1ccccc12 [elipticine, ellipticine]",cell death in SK cells,primary SK cells; within 48 hours,induce cell death
same,Akt signaling in SK cells,Akt,block Akt signaling
O=c1c(O)c(-c2ccc(O)cc2)oc2cc(O)cc(O)c12 [kaempferol],cell death in SK cells,primary SK cells; within 48 hours,induce cell death
same,Akt signaling in SK cells,Akt,block Akt signaling
CCn1c(-c2nonc2N)nc2c(C#CC(C)(C)O)ncc(OC[C@H]3CCCNC3)c21 [GSK690693],shared targets in kinase profiling,human kinome,only members of the Akt and PKC family were shared targets
Clc1ccc(C2(c3ccc(-c4cn[nH]c4)cc3)CCNCC2)cc1 [C9],SK cell death inducer activity / viability of SK cells in the screen,primary SK cells,did not affect the viability
same,cell death in SK cells (follow-up),primary SK cells,did not show any effects
